Article PMC10668980, “Molecular Cloning, Heterologous Expression, Purification, and Evaluation of Protein–Ligand Interactions of CYP51 of Candida krusei Azole-Resistant Fungal Strain” (Biomedicines, 2023)
Like-named read-outs stand apart in the source and are kept apart here.

Legend:
[1] = target: T1, C. krusei CYP51 (C.krCYP51) (Pichia kudriavzevii, UniProt A9YUC7, K136R); conditions: for ΔAmax: absorbance change at ligand saturation; for Type of Spectral Response: difference spectrum 350–500 nm
T1 sequence (A9YUC7 2-528 K136R): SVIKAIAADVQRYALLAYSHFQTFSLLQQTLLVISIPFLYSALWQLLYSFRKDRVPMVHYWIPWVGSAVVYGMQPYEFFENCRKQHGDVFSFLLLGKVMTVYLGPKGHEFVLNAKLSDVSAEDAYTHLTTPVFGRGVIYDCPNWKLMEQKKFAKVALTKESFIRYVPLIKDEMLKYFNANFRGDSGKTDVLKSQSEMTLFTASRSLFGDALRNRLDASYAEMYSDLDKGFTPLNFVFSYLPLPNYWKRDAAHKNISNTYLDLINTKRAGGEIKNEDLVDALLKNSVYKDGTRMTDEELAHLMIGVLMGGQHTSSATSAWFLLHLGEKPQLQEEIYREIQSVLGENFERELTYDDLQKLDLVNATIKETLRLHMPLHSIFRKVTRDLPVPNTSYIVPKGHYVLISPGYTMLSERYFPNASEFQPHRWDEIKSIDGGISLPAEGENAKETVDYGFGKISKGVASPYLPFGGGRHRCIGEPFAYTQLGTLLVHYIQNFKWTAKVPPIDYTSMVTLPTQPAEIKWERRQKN
Procedure: (§1) Dissociation constants of complexes of CYP51 with the substrate, inhibitors, and potential ligands were determined by the spectrophotometric titration method in [37]. Briefly, a protein solution (final concentration of 1 μM) in buffer (50 mM potassium phosphate buffer, pH 7.4) was placed in two cuvettes (1 × 1 cm), and a baseline was recorded on a spectrophotometer at a wavelength of 350–500 nm. The spectra were detected with a Cary 5000 UV-VIS-NIR spectrophotometer. A ligand solution was added to the experimental cuvette and an equal volume of solvent was added to the control cuvette; the change in optical absorption was recorded in the same wavelength range. The solutions in the cuvettes were thoroughly mixed by pipetting after adding the ligand solution or solvent and incubated for 1–2 min. The maximum and minimum absorption values were registered.
(§2) The dissociation constant of the enzyme–ligand complex (Kd) was used as a parameter characterizing the strength of ligand binding in the active site.

[2] = target: T1, C. krusei CYP51 (C.krCYP51); assay: biochemical
Procedure: as §1, §2

## CC(=O)O[C@@]12C=C[C@]3(C[C@H]1[N+](=O)[O-])C1CCc4cc(O)ccc4C1CC[C@@]32C (stereo partly drawn) [73c, 14,17-etheno-3-hydroxy-16α-nitroestra-1,3,5(10)-trien-17β-yl acetate]
[1]; steroid derivatives
  ΔAmax: 0.0069
  Type of Spectral Response: type I
[2]
  Kd: 10700 nM

## c1ccc(-c2ccc(C(c3ccccc3)n3ccnc3)cc2)cc1 (stereo not drawn) [Bifonazole]
[1]; azoles
  ΔAmax: 0.050
  Type of Spectral Response: type II
[2]
  Kd: 3 nM

## CC(C)=CCC[C@@H](C)[C@H]1CC[C@@]2(C)C3=C(CC[C@]12C)[C@@]1(C)CC[C@H](O)C(C)(C)[C@@H]1CC3 [Lanosterol]
[1]; steroid derivatives
  ΔAmax: 0.031
  Type of Spectral Response: type I
[2]
  Kd: 2820 nM

## COC1C(OC2CCC3(C)C(C(O)CC4(O)C3CCC3(C)C(C(C)CCC(OC5OC(CO)C(O)C5O)C(C)C)CC(O)C34)C2O)OCC(O)C1O (stereo not drawn) [Ch-4, granulatoside A]
[1]; steroid derivatives
  ΔAmax: 0.0099
  Type of Spectral Response: type I
[2]
  Kd: 6950 nM

## C[C@@H](c1ncncc1F)[C@](O)(Cn1cncn1)c1ccc(F)cc1F [Voriconazole]
[1]; azoles
  ΔAmax: 0.023
  Type of Spectral Response: type II
[2]
  Kd: 10 nM

## CC(C)C(C=C[C@](C)(O)[C@H]1CC[C@H]2[C@@H]3CC=C4C[C@@H](O)CC[C@]4(C)[C@H]3CC[C@@]21C)=NO [compound 99, 3β,20-dihydroxy-24-hydroxyiminocholest-5,22-diene]
[1]; steroid derivatives
  ΔAmax: 0.0047
  Type of Spectral Response: type I
[2]
  Kd: 1020 nM
